Measured values taken from patent publication US20240190880A1 (THE REGENTS OF THE UNIVERSITY OF MICHIGAN, priority 2021, published 2024).

The compounds below were run against T1, ER (Homo sapiens, UniProt P03372) (assay: ER degradation activity, in-cell western blot analysis in T47D cells). Conditions: 16 hours, Table A does not say which cell line (T47D or MCF7), read-out: Potency (DC50).
T1 construct: host or cells: T47D and MCF7 human breast cancer cells
T1 sequence (P03372 1-595): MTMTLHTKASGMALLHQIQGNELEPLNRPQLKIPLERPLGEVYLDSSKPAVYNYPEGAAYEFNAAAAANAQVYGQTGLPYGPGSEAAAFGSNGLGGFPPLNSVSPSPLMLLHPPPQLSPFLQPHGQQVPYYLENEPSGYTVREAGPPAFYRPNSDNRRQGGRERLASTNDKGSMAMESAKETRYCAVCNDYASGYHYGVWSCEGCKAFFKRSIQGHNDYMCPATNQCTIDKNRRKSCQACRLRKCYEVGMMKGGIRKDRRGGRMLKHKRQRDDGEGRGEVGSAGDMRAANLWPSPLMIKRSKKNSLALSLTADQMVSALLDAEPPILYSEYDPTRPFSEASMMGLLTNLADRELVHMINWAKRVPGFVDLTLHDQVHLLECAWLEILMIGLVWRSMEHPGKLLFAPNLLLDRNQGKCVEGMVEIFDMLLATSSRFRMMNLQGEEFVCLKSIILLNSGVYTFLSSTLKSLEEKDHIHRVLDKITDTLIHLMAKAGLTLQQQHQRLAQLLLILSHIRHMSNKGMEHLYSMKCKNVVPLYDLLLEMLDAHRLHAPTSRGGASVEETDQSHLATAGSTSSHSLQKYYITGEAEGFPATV
Format: cell-based
Summary of the method: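 T47D cells cultured in DMEM with 10% FBS, treated with compounds (final 0.5% DMSO) for 16 h. ER level measured by in-cell western with anti-rabbit-680/anti-mouse-800 near-infrared detection. Relative ER percentage calculated against untreated and DMSO-treated wells set as 100%.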

DC50, < 0.01 µM:
C[C@@H]1Cc2c([nH]c3ccccc23)[C@@H](c2c(F)cc(C3CCC(C(=O)N4CCC(N5Cc6cc7c(cc6C5)C(=O)N(C5CCC(=O)NC5=O)C7=O)CC4)CC3)cc2F)N1CC(F)F (stereo partly drawn) [E246, 6-(1-(4-(4-((1R,3R)-2-(2,2-difluoroethyl)-3-methyl-2,3,4,9-tetrahydro-1H-pyrido[3,4-b]indol-1-yl)-3,5-difluorophenyl)cyclohexane-1-carbonyl)piperidin-4-yl)-2-(2,6-dioxopiperidin-3-yl)-6,7-dihydropyrrolo[3,4-f]isoindole-1,3(2H,5H)-dione]
C[C@@H]1Cc2c([nH]c3ccccc23)[C@@H](c2c(F)cc(C3CCC(C(=O)N4CC(CN5Cc6cc7c(cc6C5)C(=O)N(C5CCC(=O)NC5=O)C7=O)C4)CC3)cc2F)N1CC(F)F (stereo partly drawn) [E250, 6-((1-(4-(4-((1R,3R)-2-(2,2-difluoroethyl)-3-methyl-2,3,4,9-tetrahydro-1H-pyrido[3,4-b]indol-1-yl)-3,5-difluorophenyl)cyclohexane-1-carbonyl)azetidin-3-yl)methyl)-2-(2,6-dioxopiperidin-3-yl)-6,7-dihydropyrrolo[3,4-f]isoindole-1,3(2H,5H)-dione]

DC50, 0.01 to 0.1 µM:
C[C@@H]1Cc2c([nH]c3ccccc23)[C@@H](c2c(F)cc(C3CCC(C(=O)N4CCC(F)(CN5Cc6cc7c(cc6C5)C(=O)N(C5CCC(=O)NC5=O)C7=O)CC4)CC3)cc2F)N1CC(F)F (stereo partly drawn) [E247, 6-((1-(4-(4-((1R,3R)-2-(2,2-difluoroethyl)-3-methyl-2,3,4,9-tetrahydro-1H-pyrido[3,4-b]indol-1-yl)-3,5-difluorophenyl)cyclohexane-1-carbonyl)-4-fluoropiperidin-4-yl)methyl)-2-(2,6-dioxopiperidin-3-yl)-6,7-dihydropyrrolo[3,4-f]isoindole-1,3(2H,5H)-dione]
O=C1CCC(N2C(=O)c3cc4c(cc3C2=O)CN(Cc2ccc(N3CC(Oc5ccc([C@@H]6c7ccc(O)cc7CC[C@@H]6c6ccccc6)cc5)C3)nc2)C4)C(=O)N1 (stereo partly drawn) [E329, 2-(2,6-dioxopiperidin-3-yl)-6-((6-(3-(4-((1R,2S)-6-hydroxy-2-phenyl-1,2,3,4-tetrahydronaphthalen-1-yl)phenoxy)azetidin-1-yl)pyridin-3-yl)methyl)-6,7-dihydropyrrolo[3,4-f]isoindole-1,3(2H,5H)-dione]

DC50, > 0.1 µM:
C[C@@H]1Cc2c([nH]c3ccccc23)[C@@H](c2c(F)cc(C3CCC(C(=O)N4CCC(CN5Cc6cc7c(cc6C5)C(=O)N(C5CCC(=O)NC5=O)C7=O)CC4)CC3)cc2F)N1CC(F)F (stereo partly drawn) [E248, 6-((1-(4-(4-((1R,3R)-2-(2,2-difluoroethyl)-3-methyl-2,3,4,9-tetrahydro-1H-pyrido[3,4-b]indol-1-yl)-3,5-difluorophenyl)cyclohexane-1-carbonyl)piperidin-4-yl)methyl)-2-(2,6-dioxopiperidin-3-yl)-6,7-dihydropyrrolo[3,4-f]isoindole-1,3(2H,5H)-dione]
C[C@@H]1Cc2c([nH]c3ccccc23)[C@@H](c2c(F)cc(C3CCC(C(=O)N4CC(N5Cc6cc7c(cc6C5)C(=O)N(C5CCC(=O)NC5=O)C7=O)C4)CC3)cc2F)N1CC(F)F (stereo partly drawn) [E249, 6-(1-(4-(4-((1R,3R)-2-(2,2-difluoroethyl)-3-methyl-2,3,4,9-tetrahydro-1H-pyrido[3,4-b]indol-1-yl)-3,5-difluorophenyl)cyclohexane-1-carbonyl)azetidin-3-yl)-2-(2,6-dioxopiperidin-3-yl)-6,7-dihydropyrrolo[3,4-f]isoindole-1,3(2H,5H)-dione]
C[C@@H]1Cc2c([nH]c3ccccc23)[C@@H](c2c(F)cc(-c3ccc(CN4CCC(N5Cc6cc7c(cc6C5)C(=O)N(C5CCC(=O)NC5=O)C7=O)CC4)nc3)cc2F)N1CC(F)F (stereo partly drawn) [E326, 6-(1-((5-(4-((1R,3R)-2-(2,2-difluoroethyl)-3-methyl-2,3,4,9-tetrahydro-1H-pyrido[3,4-b]indol-1-yl)-3,5-difluorophenyl)pyridin-2-yl)methyl)piperidin-4-yl)-2-(2,6-dioxopiperidin-3-yl)-6,7-dihydropyrrolo[3,4-f]isoindole-1,3(2H,5H)-dione]
O=C1CCC(N2C(=O)c3cc4c(cc3C2=O)CN(c2ncc(CN3CC(Oc5ccc([C@@H]6c7ccc(O)cc7CC[C@@H]6c6ccccc6)cc5)C3)cn2)C4)C(=O)N1 (stereo partly drawn) [E327, 2-(2,6-dioxopiperidin-3-yl)-6-(5-((3-(4-((1R,2S)-6-hydroxy-2-phenyl-1,2,3,4-tetrahydronaphthalen-1-yl)phenoxy)azetidin-1-yl)methyl)pyrimidin-2-yl)-6,7-dihydropyrrolo[3,4-f]isoindole-1,3(2H,5H)-dione]
O=C1CCC(N2C(=O)c3cc4c(cc3C2=O)CN(c2ccc(CN3CC(Oc5ccc([C@@H]6c7ccc(O)cc7CC[C@@H]6c6ccccc6)cc5)C3)cn2)C4)C(=O)N1 (stereo partly drawn) [E328, 2-(2,6-dioxopiperidin-3-yl)-6-(5-((3-(4-((1R,2S)-6-hydroxy-2-phenyl-1,2,3,4-tetrahydronaphthalen-1-yl)phenoxy)azetidin-1-yl)methyl)pyridin-2-yl)-6,7-dihydropyrrolo[3,4-f]isoindole-1,3(2H,5H)-dione]
O=C1CCC(N2C(=O)c3cc4c(cc3C2=O)CN(Cc2cnc(N3CC(Oc5ccc([C@@H]6c7ccc(O)cc7CC[C@@H]6c6ccccc6)cc5)C3)nc2)C4)C(=O)N1 (stereo partly drawn) [E330, 2-(2,6-dioxopiperidin-3-yl)-6-((2-(3-(4-((1R,2S)-6-hydroxy-2-phenyl-1,2,3,4-tetrahydronaphthalen-1-yl)phenoxy)azetidin-1-yl)pyrimidin-5-yl)methyl)-6,7-dihydropyrrolo[3,4-f]isoindole-1,3(2H,5H)-dione]
O=C1CCC(N2C(=O)c3cc4c(cc3C2=O)CN(CC(=O)NC2CCN(c3ccc([C@@H]5c6ccc(O)cc6CC[C@@H]5c5ccccc5)cc3)CC2)C4)C(=O)N1 (stereo partly drawn) [E331, 2-(6-(2,6-dioxopiperidin-3-yl)-5,7-dioxo-3,5,6,7-tetrahydropyrrolo[3,4-f]isoindol-2(1H)-yl)-N-(1-(4-((1R,2S)-6-hydroxy-2-phenyl-1,2,3,4-tetrahydronaphthalen-1-yl)phenyl)piperidin-4-yl)acetamide]
O=C1CCC(N2C(=O)c3cc4c(cc3C2=O)CN(CCC(=O)NC2CCN(c3ccc([C@@H]5c6ccc(O)cc6CC[C@@H]5c5ccccc5)cc3)CC2)C4)C(=O)N1 (stereo partly drawn) [E332, 3-(6-(2,6-dioxopiperidin-3-yl)-5,7-dioxo-3,5,6,7-tetrahydropyrrolo[3,4-f]isoindol-2(1H)-yl)-N-(1-(4-((1R,2S)-6-hydroxy-2-phenyl-1,2,3,4-tetrahydronaphthalen-1-yl)phenyl)piperidin-4-yl)propanamide]
CN(CC1CN(c2ccc([C@@H]3c4ccc(O)cc4CC[C@@H]3c3ccccc3)cc2)C1)C1CCC(N2Cc3cc4c(cc3C2)C(=O)N(C2CCC(=O)NC2=O)C4=O)CC1 (stereo partly drawn) [E333, 2-(2,6-dioxopiperidin-3-yl)-6-(4-(((1-(4-((1R,2S)-6-hydroxy-2-phenyl-1,2,3,4-tetrahydronaphthalen-1-yl)phenyl)azetidin-3-yl)methyl)(methyl)amino)cyclohexyl)-6,7-dihydropyrrolo[3,4-f]isoindole-1,3(2H,5H)-dione]
O=C1CCC(N2C(=O)c3cc4c(cc3C2=O)CN([C@H]2CC[C@@H](NC3CCN(c5ccc([C@@H]6c7ccc(O)cc7CC[C@@H]6c6ccccc6)cc5)CC3)CC2)C4)C(=O)N1 (stereo partly drawn) [E334, 2-(2,6-dioxopiperidin-3-yl)-6-((1S,4s)-4-((1-(4-((1R,2S)-6-hydroxy-2-phenyl-1,2,3,4-tetrahydronaphthalen-1-yl)phenyl)piperidin-4-yl)amino)cyclohexyl)-6,7-dihydropyrrolo[3,4-f]isoindole-1,3(2H,5H)-dione]
C[C@@H]1Cc2cc(O)ccc2[C@@H](c2c(F)cc(N3CC4(CCN(CC(=O)N5Cc6cc7c(cc6C5)C(=O)N(C5CCC(=O)NC5=O)C7=O)CC4)C3)cc2F)N1CC(C)(F)F (stereo partly drawn) [E 25, 6-(2-(2-(4-((1S,3R)-2-(2,2-difluoropropyl)-6-hydroxy-3-methyl-1,2,3,4-tetrahydroisoquinolin-1-yl)-3,5-difluorophenyl)-2,7-diazaspiro[3.5]nonan-7-yl)acetyl)-2-(2,6-dioxopiperidin-3-yl)-6,7-dihydropyrrolo[3,4-f]isoindole-1,3(2H,5H)-dione]
C[C@@H]1Cc2cc(O)ccc2[C@@H](c2c(F)cc(N3CC4(CCN(CC(=O)N5Cc6cc7c(cc6C5)C(=O)N(C5CCC(=O)NC5=O)C7)CC4)C3)cc2F)N1CC(C)(F)F (stereo partly drawn) [E 26, 3-(6-(2-(2-(4-((1S,3R)-2-(2,2-difluoropropyl)-6-hydroxy-3-methyl-1,2,3,4-tetrahydroisoquinolin-1-yl)-3,5-difluorophenyl)-2,7-diazaspiro[3.5]nonan-7-yl)acetyl)-1-oxo-3,5,6,7-tetrahydropyrrolo[3,4-f]isoindol-2(1H)-yl)piperidine-2,6-dione]
